# Test results taken from patent US8648112B2, “Therapeutic uses of urolithins” (The Regents of the University of California, priority 2006, dated 2014).
# pIC50: −log10 of the molar value.
# Assays:
# [1] = system: DU145 prostate cancer cell line; experiment: Antiproliferative cell assay (CellTiter-Glo), DU145; format: cell-based, human; settings: Homo sapiens, DU-145, 48 h exposure, read-out: IC50 against prostate cancer cell line DU145
# Method: (§1) Cell Culture Materials. The 22Rv1, DU145, LNCaP and PC3 prostate cancer cell lines were obtained from American Type Culture Collection (ATCC, Rockville, Md.). The LNCaP-AR and Hi-Myc cell lines were a kind donation by Dr. C. Sawyers (David Geffen School of Medicine, UCLA, Los Angeles, Calif.). DU145, 22Rv1, LNCaP, LNCaP-AR, and PC3 cells were grown in RPMI 1640; Hi-Myc cells were grown in Isecove's Modified Dulbecco's Medium. All media contained 10% fetal bovine serum (FBS) in the presence of 100 U/mL penicillin and 0.1 g/L streptomycin. RWPE-1 prostate cells were grown in Defined Keratinocyte Serum Free Medium (DKSFM) containing epidermal growth factor (EGF), insulin and fibroblast growth factor (FGF). Cells were incubated at 37° C. with 95% air and 5% CO2. All cells were maintained below passage 20 and used in experiments during the linear phase of growth.
# (§2) Proliferation was measured utilizing the CellTiter-Glo® Luminescent Cell Viability Assay (Technical Bulletin #288, Promega Corp., Madison, Wis.). When added to cells, the assay reagent produces luminescence in the presence of ATP from viable cells. Cells were plated in 96-well plates at a density of 10,000 cells/well and incubated for 24 hours. Test samples were solubilized in DMSO by sonication, filter sterilized and diluted with media to the desired treatment concentration. Cells were treated with 100 μLcontrol media, vehicle control (DMSO<0.2% of total) or test samples and incubated for 48 h drug exposure duration at 6.25, 12.5, 25, 50 and 100 μg/mL concentrations. At the end of 48 h, plates were equilibrated at room temperature for 30 min; 100 μL of the assay reagent was added to each well and cell-lysis was induced on an orbital shaker for 2 min. Plates were incubated at room temperature for 10 min to stabilize the luminescence signal and results were read on an Orion Microplate Luminometer (Bertholds Detection Systems, Pforzheim, Germany). All plates had control wells containing medium without cells to obtain a value for background luminescence. Data are expressed as percentage of untreated cells (i.e. treatment value-blank/vehicle value-blank), mean±SE for three replications.
# LNCaP-AR cells = experiment: Assessment of apoptosis (Cell Death Detection ELISA), LNCaP-AR; format: cell-based, human; settings: 48 h, p=0.01
# Method: (§3) Assessment of apoptosis. Apoptosis was assessed utilizing the Cell Death Detection ELISAPLUS Assay (Boehringer Mannheim, Indianapolis, Ind.). This assay is a photometric enzyme-linked immunoassay that quantitatively measures the internucleosomal degradation of DNA, which occurs during apoptosis. Specifically, the assay detects histone associated mono- and oligonucleosomes, which are indicators of apoptosis. Cells (22RV1, PC-3, LNCaP, LNCaP-AR), were plated in 60 mm dishes at a density of 100,000 cells/dish and allowed to attach for 24 hours. Cells were treated with vehicle control (100% DMSO; 0.3% final concentration), or urolithin B (0-50 μg/mL or 0-236 μM) for 48 hours. Following treatments, non-adherent cells were collected and pelleted at 200×g for ten minutes. The supernatant was discarded; the cell pellet was washed with cold CMF-PBS and re-centrifuged. […] Both live and dead cells were then counted via trypan blue exclusion (Pierce, Rockford, Ill.) and equal numbers of cells were added to the microtiter plate for all treatment groups and apoptosis assay was performed according to the manufacturer's instructions. Data are expressed as absorbance at 405 nm of each sample over vehicle controls as follows=treatment value-blank/vehicle value-blank.
# [2] = system: PC3 prostate cancer cell line; experiment: Antiproliferative cell assay (CellTiter-Glo), PC3; format: cell-based, human; settings: Homo sapiens, 48 h exposure, read-out: IC50 against prostate cancer cell line PC3
# Method: as §1, §2
# [3] = system: LNCaP prostate cancer cell line; experiment: Antiproliferative cell assay (CellTiter-Glo), LNCaP; format: cell-based, human; settings: Homo sapiens, 48 h exposure, read-out: IC50 against prostate cancer cell line LNCaP
# Method: as §1, §2
# [4] = system: Hi-Myc prostate cancer cell line; experiment: Antiproliferative cell assay (CellTiter-Glo), Hi-Myc; format: cell-based; settings: Hi-Myc (mouse), 48 h exposure, read-out: IC50 against prostate cancer cell line HiMyc
# Method: as §1, §2
# [5] = system: human pancreatic cancer cell line BXPC-3; experiment: Antiproliferative activity against pancreatic cancer cells (CellTiter-Glo), BXPC-3; format: cell-based; settings: 100 μg/mL, 48 hrs
# Method: (§4) EA and EA-metabolites (gallic and gallagic acids, urolithin B and methylated-urolithin A) were evaluated for antiproliferative activity against the human pancreatic cancer cell lines ASPC-1 and BXPC-3. The cells were grown to a concentration of 10,000 cells per well; and were then resuspended in medium containing the vehicle control or the indicated compound: Ellagic acid, urolithin A, methyl urolithin A, or urolithin B, at a concentration of 100 μg/mL. The cells were incubated for 48 hrs, and the viability assayed byCellTiter-Glo® Luminescent Cell Viability Assay (Technical Bulletin #288, Promega Corp., Madison, Wis.).
# [6] = system: LNCaP-AR prostate cancer cell line; experiment: Antiproliferative cell assay (CellTiter-Glo), LNCaP-AR; format: cell-based, human; settings: Homo sapiens, 48 h exposure, read-out: IC50 against prostate cancer cell line LNCap-AR
# Method: as §1, §2
# 22Rv1 cells = experiment: Assessment of apoptosis (Cell Death Detection ELISA), 22Rv1; format: cell-based, human; settings: 48 h, p=0.05
# Method: as §3
# [7] = system: human pancreatic cancer cell line ASPC-1; experiment: Antiproliferative activity against pancreatic cancer cells (CellTiter-Glo), ASPC-1; format: cell-based; settings: 100 μg/mL, 48 hrs
# Method: as §4
# [8] = system: 22Rv1 prostate cancer cell line; experiment: Antiproliferative cell assay (CellTiter-Glo), 22Rv1; format: cell-based, human; settings: Homo sapiens, 22Rv1, 48 h, 48 h exposure, read-out: IC50 against prostate cancer cell line 22 Rv1
# Method: as §1, §2
# LNCaP cells = experiment: Assessment of apoptosis (Cell Death Detection ELISA), LNCaP; format: cell-based, human; settings: 48 h, p=0.01
# Method: as §3
# [9] = system: human colon cancer cell line HCT-116; experiment: Antiproliferative activity against colon cancer cells (CellTiter-Glo); format: cell-based; settings: 100 μg/mL, 48 hrs
# Method: as §4, with “colon” for “pancreatic”, “line HCT-116.” for “lines ASPC-1 and BXPC-3.”, “well in a 96 well format;” for “well;”, “containing” for “containing the”, “by the CellTiter-Glo®” for “byCellTiter-Glo®”
# PC3 cells = experiment: Assessment of apoptosis (Cell Death Detection ELISA), PC3; format: cell-based, human; settings: 48 h, p=0.05
# Method: as §3
smiles,measurement,setting,value
"O=c1oc2cc(O)ccc2c2ccccc12 [Urolithin B, 3-hydroxy-6H-dibenzo[b,d]pyran-6-one]",pIC50,[1],4.23
same,concentration showing statistically significant pro-apoptotic effect,LNCaP-AR cells,59 µM
same,pIC50,[2],3.90
same,pIC50,[3],4.04
same,pIC50,[4],4.22
same,"anti-proliferative activity, rank order",[5],"urolithin A is the most active, then ellagic acid, urolithin B and methyl urolithin A"
same,pIC50,[6],4.55
same,concentration showing statistically significant pro-apoptotic effect,22Rv1 cells,59 µM
same,"anti-proliferative activity, rank order",[7],"urolithin A is the most active, then ellagic acid, urolithin B and methyl urolithin A"
same,pIC50,[8],3.93
same,concentration showing statistically significant pro-apoptotic effect,LNCaP cells,118 µM
same,"anti-proliferative activity, rank order",[9],"urolithin A is the most active, then ellagic acid, urolithin B and methyl urolithin A"
same,concentration showing statistically significant pro-apoptotic effect,PC3 cells,29.5 µM
